Results as given in patent US20250326769A1, “HETEROAROMATIC MACROCYCLIC ETHER CHEMOTHERAPEUTIC AGENTS” (Nuvalent, Inc., priority 2022, published 2025).

Legend:
Ba/F3 ETV6-TRKB = Ba/F3 ETV6-TRKB (Homo sapiens, UniProt Q16620); test: Ba/F3 cell proliferation assay, ETV6-TRKB; assay type: cell-based; conditions: Ba/F3 stable cells, 72 hours, CellTiter-Glo; read-out: ETV6-TRKB IC50
In short: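 Growth inhibition after 72 h compound exposure (3-fold series) was measured by CellTiter-Glo in IL-3-independent Ba/F3 cells stably expressing ETV6-TRKB. A four-parameter logistic fit of percent inhibition versus concentration gave IC50.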

ALK I1171N/D1203N = ALK I1171N/D1203N (Homo sapiens (Human), UniProt Q9UM73, D1203N/I1171N); test: Biochemical kinase assay, ALK I1171N/D1203N; conditions: apparent inhibitory constant, kinase domain, Morrison equation; read-out: ALK-I1171N-D1203N Ki^app
Chain of ALK I1171N/D1203N (Q9UM73 1116-1392 I1171N/D1203N): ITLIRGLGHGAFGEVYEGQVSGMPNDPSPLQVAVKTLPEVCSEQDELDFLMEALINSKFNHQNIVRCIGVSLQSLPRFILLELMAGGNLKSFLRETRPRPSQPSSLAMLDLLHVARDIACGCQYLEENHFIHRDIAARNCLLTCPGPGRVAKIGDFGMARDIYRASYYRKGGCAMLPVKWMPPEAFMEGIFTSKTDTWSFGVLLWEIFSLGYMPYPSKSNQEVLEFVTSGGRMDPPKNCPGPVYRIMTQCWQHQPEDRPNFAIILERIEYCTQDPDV
Protocol: (§1) First, 250 nL of compound dissolved in DMSO (100-fold of the desired concentration) was dispensed into a 384-well plate. A 12.5 μL substrate solution containing ATP (2 mM) and fluorogenic phosphorylation substrate AQT0101 ([…] for ALK and ROS, AssayQuant) or AQT0104 (26 μM for TRKB, AssayQuant) in buffer (50 mM HEPES pH 7.5, […], 0.5 mM EGTA, 10 mM MgCl2) was added and mixed thoroughly. Then, a 12.5 μL kinase solution containing ALK (1.5 nM, Carna, 08-518), ALK I1171N/D1203N (4 nM, SignalChem, custom-made), ROS1 (0.6 nM, Carma, 08-163), ROS1-G2032R (0.5 nM, SignalChem, R14-121BG), or TRKB-wt (1.5 nM, SignalChem, N17-11G) kinase domains in buffer ([…] pH 7.5, 0.01% Brij-[…], 0.4 mg/mL BSA, 0.5 mM EGTA, and 10 mM MgCl2) was added and mixed thoroughly. The plate was sealed and read by SpectraMax Paradigm at λ=485 nm every 2 minutes for 120 minutes at 30° C. Initial rates of reaction (v) were calculated from the change in fluorescence intensity over time during the initial, linear portion of the reaction. Finally, apparent inhibitory constants (Ki^app) were determined from regression of v and I (inhibitor concentration) to Morrison Equation (E=enzyme concentration): […]
(§2) Compound potency can be interpreted by binning Ki^app values against the targets: bin A for high potency, Ki^app<50 nM; bin B for medium potency, 50 nM≤Ki^app<500 nM; and bin C for low potency, Ki^app≥500 nM. […] “nd” means not determined.

TRKB-wt = TRKB-wt (Homo sapiens (Human), UniProt Q16620); test: Biochemical kinase assay, TRKB-wt; conditions: apparent inhibitory constant, kinase domain, Morrison equation; read-out: TRKB-wt Ki^app
Chain of TRKB-wt (Q16620 538-807): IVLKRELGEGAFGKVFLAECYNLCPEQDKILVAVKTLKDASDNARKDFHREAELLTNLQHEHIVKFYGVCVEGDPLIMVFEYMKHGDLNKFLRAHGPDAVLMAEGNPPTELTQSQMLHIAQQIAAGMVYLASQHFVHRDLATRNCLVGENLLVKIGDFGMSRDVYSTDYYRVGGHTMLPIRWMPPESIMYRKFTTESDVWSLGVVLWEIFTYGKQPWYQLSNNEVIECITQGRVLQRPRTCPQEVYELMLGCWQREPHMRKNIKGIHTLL
Protocol: as §1, §2

[1] = target: Ba/F3 EML4-ALK v1 I1171N/D1203N (Homo sapiens (Human), UniProt Q9HC35+Q9UM73, D1203N/I1171N); test: Ba/F3 cell proliferation assay, EML4-ALK v1 I1171N/D1203N; assay type: cell-based; conditions: for IC50: Ba/F3 stable cells, 72 hours, CellTiter-Glo; for ETV6-TRKB / EML4-ALK v1 I1171N/D1203N / Selectivity for Ba/F3 EML4-ALK v1 I1171N-D1203N IC50 over Ba/F3 ETV6-TRKB IC50: TRKB selectivity, ratio of Ba/F3 IC50 values; for Selectivity for Ba/F3 EML4-ALK v1 I1171N-D1203N IC50 over Ba/F3 ETV6-TRKB IC50: Table 6 bins
Chain of Ba/F3 EML4-ALK v1 I1171N/D1203N (Q9UM73 other isoform, or with tags, fused parts or gaps I1171N/D1203N): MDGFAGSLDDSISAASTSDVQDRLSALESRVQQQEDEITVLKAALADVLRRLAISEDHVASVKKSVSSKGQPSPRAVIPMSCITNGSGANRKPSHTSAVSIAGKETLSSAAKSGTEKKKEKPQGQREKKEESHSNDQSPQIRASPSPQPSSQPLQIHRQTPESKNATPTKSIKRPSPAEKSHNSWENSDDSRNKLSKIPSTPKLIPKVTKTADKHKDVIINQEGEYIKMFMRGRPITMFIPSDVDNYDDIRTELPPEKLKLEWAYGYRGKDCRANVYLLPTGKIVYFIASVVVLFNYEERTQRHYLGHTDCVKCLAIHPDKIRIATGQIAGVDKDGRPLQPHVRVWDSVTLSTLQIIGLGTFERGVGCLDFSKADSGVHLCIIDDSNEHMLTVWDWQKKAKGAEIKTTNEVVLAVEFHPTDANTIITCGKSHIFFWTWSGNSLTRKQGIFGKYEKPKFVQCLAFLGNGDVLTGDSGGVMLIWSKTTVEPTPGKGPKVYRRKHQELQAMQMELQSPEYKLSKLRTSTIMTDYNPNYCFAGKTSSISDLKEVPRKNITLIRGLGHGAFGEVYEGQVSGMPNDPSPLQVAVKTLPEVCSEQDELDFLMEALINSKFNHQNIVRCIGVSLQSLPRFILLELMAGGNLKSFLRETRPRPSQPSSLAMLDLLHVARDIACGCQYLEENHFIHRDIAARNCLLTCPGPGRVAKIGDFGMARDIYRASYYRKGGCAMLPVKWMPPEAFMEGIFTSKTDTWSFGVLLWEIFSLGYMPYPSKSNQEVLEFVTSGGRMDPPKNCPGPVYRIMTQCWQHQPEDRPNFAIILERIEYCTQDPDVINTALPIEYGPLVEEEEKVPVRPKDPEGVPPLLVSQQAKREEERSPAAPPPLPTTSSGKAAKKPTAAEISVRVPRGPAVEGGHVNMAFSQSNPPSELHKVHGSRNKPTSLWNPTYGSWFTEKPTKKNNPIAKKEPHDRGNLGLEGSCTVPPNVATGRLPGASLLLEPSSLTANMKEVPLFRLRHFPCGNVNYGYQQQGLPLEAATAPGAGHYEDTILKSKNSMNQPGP
In short: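 Viability read by CellTiter-Glo luminescence after 72 h exposure to a 3-fold compound dilution series, with IC50 from four-parameter logistic regression. Cells were Ba/F3 rendered IL-3-independent through retroviral expression of EML4-ALK v1 I1171N/D1203N, puromycin-selected.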

Ba/F3 EML4-ALK v1 I1171N = Ba/F3 EML4-ALK v1 I1171N (Homo sapiens (Human), UniProt Q9HC35+Q9UM73, I1171N); test: Ba/F3 cell proliferation assay, EML4-ALK v1 I1171N; assay type: cell-based; conditions: for IC50: Ba/F3 stable cells, 72 hours, CellTiter-Glo; for ETV6-TRKB / EML4-ALK v1 I1171N: TRKB selectivity, ratio of Ba/F3 IC50 values
Chain of Ba/F3 EML4-ALK v1 I1171N (Q9UM73 other isoform, or with tags, fused parts or gaps I1171N): as the sequence (Q9UM73 other isoform, or with tags, fused parts or gaps I1171N/D1203N) above, with N642D counted along it
Excerpt: Genes encoding EML4-ALK v1 (variant 1), EML4-ALK v1 G1202R, EML4-ALK v1 I1171IN, EML4-ALK v1 D1203N, EML4-ALK v1 I1171N/D1203N, and ETV6-TRKB were synthesized at GeneRay, cloned into the retroviral construct pMSCV-puro (Biovector), and packaged into retroviral particles. The virus was used to infect Ba/F3 cells (RIKEN) at multiplicity of infection=1 for 1 day. Infected cells were rescued in media (RPMI-1640 with 10% fetal bovine serum and 1% streptomycin and penicillin) supplemented with mouse IL-3 (10 ng/mL) for 2 days, and stable cell lines were selected by IL-3 withdrawal and puromycin (0.8 μg/mL) for 7 days. Monoclones were selected by single-cell dilution in IL-3-free medium containing puromycin (0.8 μg/mL). Transformation of desired genes was confirmed by Sanger sequencing and western blot using the following antibodies: ALK (CST #3633) and pan-TRK (Abcam #76291).
Stable cells were plated in a 384-well plate. Test compounds were then added in a 3-fold dilution series and incubated for 72 hours. CellTiter-Glo reagent (Promega) was added. Luminescence was measured on a plate reader. Half-maximal inhibitory concentration (ICso) was calculated from percent inhibition and inhibitor concentration using four-parameter logistic regression. Compound potency can be interpreted by binning IC50 values: bin A for high potency, 0.1 nM IC50<50 nM; bin B for medium potency, 50 nM<IC50<500 nM; and bin C for low potency, IC50>500 nM. […] Exemplary data is given in Table 4 (nd is not determined).
Ba/F3 proliferation is driven by the transduced oncogenes in the same way that cancer cell proliferation in humans is driven by the expression of equivalent oncogenes.
TRKB selectivity was calculated by dividing a compound's TRKB potency by its primary target potency (e.g., ETV6-TRKB IC50/EML4-ALK v1 IC50). Compound selectivity can be interpreted by binning ratio values: bin A for very high selectivity, ratio≥30-fold; bin B for high selectivity, ratio≥10-fold but<30; bin C for moderate selectivity, ratio≥1 but<10; and bin D for low selectivity, ratio<1. […] (nd=not determined).

Chain of Ba/F3 ETV6-TRKB (Q16620 32-822 limits assumed, change not shown): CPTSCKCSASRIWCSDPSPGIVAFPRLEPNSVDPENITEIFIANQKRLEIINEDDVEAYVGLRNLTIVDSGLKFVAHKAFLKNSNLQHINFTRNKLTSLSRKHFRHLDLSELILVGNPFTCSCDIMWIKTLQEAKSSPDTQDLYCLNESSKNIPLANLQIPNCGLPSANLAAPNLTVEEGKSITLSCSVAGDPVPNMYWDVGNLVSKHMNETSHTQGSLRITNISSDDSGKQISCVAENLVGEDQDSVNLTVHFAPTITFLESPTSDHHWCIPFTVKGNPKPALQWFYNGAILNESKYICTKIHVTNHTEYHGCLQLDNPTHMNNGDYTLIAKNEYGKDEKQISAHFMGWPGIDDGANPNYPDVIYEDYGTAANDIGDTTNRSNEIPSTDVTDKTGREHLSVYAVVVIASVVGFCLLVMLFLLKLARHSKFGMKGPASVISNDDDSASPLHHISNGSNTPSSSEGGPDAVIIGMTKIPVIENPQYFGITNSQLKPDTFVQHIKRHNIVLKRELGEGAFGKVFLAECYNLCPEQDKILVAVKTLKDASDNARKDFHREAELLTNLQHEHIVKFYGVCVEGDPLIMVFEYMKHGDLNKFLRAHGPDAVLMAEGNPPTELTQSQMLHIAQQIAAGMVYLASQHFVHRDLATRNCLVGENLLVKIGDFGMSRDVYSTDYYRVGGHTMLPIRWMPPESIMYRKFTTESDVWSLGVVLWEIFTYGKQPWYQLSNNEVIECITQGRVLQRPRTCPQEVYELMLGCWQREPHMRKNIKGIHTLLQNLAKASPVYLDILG

| IC50 (Ba/F3 ETV6-TRKB) | Ki (ALK I1171N/D1203N) | Ki (TRKB-wt) | IC50 [1] | IC50 (Ba/F3 EML4-ALK v1 I1171N) | Structure (SMILES) | ETV6-TRKB / EML4-ALK v1 I1171N/D1203N [1] | Selectivity for Ba/F3 EML4-ALK v1 I1171N-D1203N IC50 over Ba/F3 ETV6-TRKB IC50 [1] | ETV6-TRKB / EML4-ALK v1 I1171N (Ba/F3 EML4-ALK v1 I1171N) |
| --- | --- | --- | --- | --- | --- | --- | --- | --- |
| > 500 nM | < 50 nM | ≥ 500 nM | 50 to 500 nM |  | C[C@H]1Oc2cc(cnc2N)-c2c(c(C(=O)N(C)C)nn2CC2CCC2)Cc2cn(C)nc2-c2ccc(F)cc21 [Example 33, (19R)-22-amino-3-(cyclobutylmcthyl)-16-fluoro-N,N,10,19-tetramethyl-20-oxa-3,4,10,11,23-pentaazapentacyclo[19.3.1.0^2,^6.0^8,^12.0^13,^18]pentacosa-1(24),2(6),4,8,11,13,15,17,21(25),22-decaene-5-carboxamide] | A (bin A for very high selectivity, ratio≥30-fold) |  |  |
| > 500 nM |  | 50 to 500 nM | 0.1 to 50 nM |  | C[C@H]1Oc2cc(cnc2N)-c2c(c(C(N)=O)nn2CC2CC2)Cc2cccnc2-c2ccc(F)cc21 [Example 6, (R)-23-amino-3-(cyclopropylmethyl)-17-fluoro-20-methyl-21-oxa-3,4,12,24-tetraazapentacyclo[20.3.1.0^2,^6.0^8,^13.0^14,^19]hexacosa-1(25),2(6),4,8(13),9,11,14,16, 18,22(26),23-undecaene-5-carboxamide] |  |  |  |
| > 500 nM | 50 to 500 nM |  | 50 to 500 nM |  | CCn1nc(C(=O)N(C)C)c2c1-c1cnc(N)c(c1)O[C@H](C)c1cc(F)ccc1-c1ncccc1C2=O [Example 47, N,N-dimethyl-(R)-23-amino-3-ethyl-17-fluoro-20-methyl-7-oxo-21-oxa-3,4,12,24-tetraazapentacyclo[20.3.1.0^2,^6.0^8,^13.0^14,^19]hexacosa-1(25),2(6),4,8(13),9,11,14,16,18,22(26),23-undecaene-5-carboxamide] |  | BB (bin BB for the selectivity with the ratio≥10-fold but<30) |  |
| > 500 nM |  | 50 to 500 nM | 0.1 to 50 nM |  | Cc1cc2n(n1)-c1c(F)cc(F)cc1[C@@H](C)Oc1cc(cnc1N)-c1c(c(C(=O)N(C)C)nn1CC1CC1)C2 [Example 44, N,N-dimethyl-(R)-22-amino-3-(cyclopropylmethyl)-14,16-difluoro-10,19-dimethyl-20-oxa-3,4,11,12,23-pentaazapentacyclo[19.3.1.0^2,^6.0^8,^12.0^13,^18]pentacosa-1(24),2(6),4,8, 10,13,15,17,21(25),22-decaene-5-carboxamide] |  |  |  |
| > 500 nM | < 50 nM |  | 50 to 500 nM | > 500 nM | CCn1ncc2c1-c1cnc(N)c(c1)O[C@H](C)c1cc(F)ccc1-c1ncccc1C2=O [Example 76, (R)-23-amino-3-ethyl-17-fluoro-20-methyl-21-oxa-3,4,12,24-tetraazapentacyclo[20.3.1.0^2,^6.0^8,^13.0^14,^19]hexacosa-1(25),2(6),4,8(13),9,11,14,16,18,22(26),23-undecaen-7-one] | C (bin C for moderate selectivity, ratio≥1 but<10) | DD (bin DD for the selectivity with the ratio≥1 but<5) | C (bin C for moderate selectivity, ratio≥1 but<10) |
| > 500 nM |  | 50 to 500 nM | 0.1 to 50 nM | 0.1 to 50 nM | CCN(C)C(=O)c1nn(CC2CC2)c2c1Cc1cn(C)nc1-c1ccc(F)cc1[C@@H](C)Oc1cc-2cnc1N [Example 38, N-ethyl-N-methyl-(R)-22-amino-3-(cyclopropylmethyl)-16-fluoro-10-methyl-19-methyl-20-oxa-3,4,10,11,23-pentaazapentacyclo[19.3.1.0^2,^6.0^8,^12.0^13,^18]pentacosa-1(24),2(6),4,8,11,13,15,17,21(25),22-decaene-5-carboxamide] |  |  |  |
| > 500 nM |  |  | > 500 nM | 50 to 500 nM | C[C@H]1Oc2cc(cnc2N)-c2c(c(C#N)nn2CC2CC2)Cc2cn(C)nc2-c2ccc(F)cc21 [Example 1, (19R)-22-amino-3-(cyclopropylmethyl)-16-fluoro-10,19-dimethyl-20-oxa-3,4,10,11,23-pentaazapentacyclo[19.3.1.0^2,6.0^8,12.0^13,18]pentacosa-1(24),2(6),4,8,11,13,15,17,21(25),22-decaene-5-carbonitrile] | C (bin C for moderate selectivity, ratio≥1 but<10) |  | B (bin B for high selectivity, ratio≥10-fold but<30) |
| > 500 nM |  |  | 50 to 500 nM | 50 to 500 nM | C[C@H]1Oc2cc(cnc2N)-c2c(C#N)nn(C(=O)N(C)C)c2Cc2cccnc2-c2c(F)cc(F)cc21 [Example 71, N,N-dimethyl-(R)-23-amino-3-cyano-15,17-difluoro-20-methyl-21-oxa-4,5,12,24-tetraazapentacyclo[20.3.1.0^2,^6.0^8,^13.0^14,^19]hexacosa-1(25),2(6),3,8(13),9,11,14,16,18,22(26),23-undecaene-5-carboxamide] | B (bin B for high selectivity, ratio≥10-fold but<30) |  | B (bin B for high selectivity, ratio≥10-fold but<30) |
| > 500 nM |  |  | 0.1 to 50 nM | 50 to 500 nM | C[C@H]1Oc2cc(cnc2N)-c2c(nn(C)c2C#N)C(=O)c2cn(C)nc2-c2c(F)cc(F)cc21 [Example 26, (R)-22-amino-14,16-difluoro-4,10-dimethyl-19-methyl-7-oxo-20-oxa-4,5,10,11,23-pentaazapentacyclo[19.3.1.0^2,^6.0^8,^12.0^13,^18]pentacosa-1(24),2,5,8,11,13,15,17,21(25),22-decaene-3-carbonitrile] | A (bin A for very high selectivity, ratio≥30-fold) | AA (bin AA for the selectivity with the ratio≥30-fold) | A (bin A for very high selectivity, ratio≥30-fold) |
| 50 to 500 nM |  |  | 0.1 to 50 nM | 0.1 to 50 nM | C[C@H]1Oc2cc(cnc2N)-c2c(C3CCC3)nn(C(=O)N(C)C)c2Cc2cccnc2-c2ccc(F)cc21 [Example 57, (R)-5-(N,N-dimethylcarbamoyl)-3-cyclobutyl-17-fluoro-20-methyl-21-oxa-4,5,12,24-tetraazapentacyclo[20.3.1.0^2,^6.0^8,^13.0^14,^19]hexacosa-1(25),2(6),3,8(13),9,11,14,16,18,22(26),23-undecaen-23-ylamine] |  |  |  |
